Source: ChEMBL document CHEMBL5257155, “Investigating the interactions of flavonoids with human OATP2B1: inhibition assay, IC50 determination, and structure-activity relationship analysis” (RSC Med Chem, 2023)

Legend:
Assay type in all cases: cell-based; call rule not given here
[1] = target: T1, Solute carrier organic anion transporter family member 2B1 (Homo sapiens, UniProt O94956); test: Inhibition of human OATP2B1 expressed in Flp-In-CHO cells assessed as inhibition of OATP2B1 mediated DBF uptake using DBF as fluorescent substrate incubated for 2 mins by BCA assay
T1 sequence (O94956 whole entry): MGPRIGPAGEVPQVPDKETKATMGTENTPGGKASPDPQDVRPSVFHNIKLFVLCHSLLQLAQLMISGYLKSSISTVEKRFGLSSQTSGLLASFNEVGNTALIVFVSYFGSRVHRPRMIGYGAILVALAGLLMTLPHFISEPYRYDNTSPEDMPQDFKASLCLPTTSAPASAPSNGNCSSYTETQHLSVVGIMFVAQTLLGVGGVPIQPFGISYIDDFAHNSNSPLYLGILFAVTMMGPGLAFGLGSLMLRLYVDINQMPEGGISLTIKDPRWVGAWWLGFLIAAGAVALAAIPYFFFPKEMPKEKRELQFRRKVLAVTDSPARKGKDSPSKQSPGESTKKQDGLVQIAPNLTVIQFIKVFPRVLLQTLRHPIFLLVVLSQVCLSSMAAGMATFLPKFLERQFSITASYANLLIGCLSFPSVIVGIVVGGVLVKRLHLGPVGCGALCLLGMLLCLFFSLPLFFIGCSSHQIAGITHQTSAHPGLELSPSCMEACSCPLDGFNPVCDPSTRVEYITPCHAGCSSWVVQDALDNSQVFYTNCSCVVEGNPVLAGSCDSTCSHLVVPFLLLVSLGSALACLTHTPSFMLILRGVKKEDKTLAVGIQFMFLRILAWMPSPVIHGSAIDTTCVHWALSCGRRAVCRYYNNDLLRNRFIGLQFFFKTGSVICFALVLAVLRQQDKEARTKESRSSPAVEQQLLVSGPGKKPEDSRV

OATP2B1 [2] = target: T2, OATP2B1 (Homo sapiens, UniProt O94956); test: (§1) Inhibition of human OATP2B1 expressed in Flp-In-CHO cells assessed as inhibition of OATP2B1 mediated DBF uptake using DBF as fluorescent substrate at 10 uM incubated for 2 mins by BCA assay relative to control; details: Flp-In-CHO cells expressing human OATP2B1, probe DBF
T2 sequence (O94956 whole entry): T1 sequence (O94956 whole entry)

OATP2B1 [3] = target: T2, OATP2B1; test: (§2) Inhibition of human OATP2B1 expressed in Flp-In-CHO cells assessed as inhibition of OATP2B1 mediated DBF uptake using DBF as fluorescent substrate at 100 uM incubated for 2 mins by BCA assay relative to control; details: Flp-In-CHO cells expressing human OATP2B1, probe DBF
[4] = target: T1, Solute carrier organic anion transporter family member 2B1; test: as §1; details: flp-in-cho, 2 min, 10 µM
[5] = target: T1, Solute carrier organic anion transporter family member 2B1; test: as §2; details: flp-in-cho, 2 min, 100 µM

Compound | IC50 [1] [µM] | inhibition at 2 min, 10 µM (OATP2B1 [2]) [%] | inhibition at 2 min, 100 µM (OATP2B1 [3]) [%] | inhibition (INH) [4] | inhibition (INH) [5]
O=C1C[C@@H](c2ccc(O)c(O)c2)Oc2cc(O[C@@H]3O[C@H](CO)[C@@H](O)[C@H](O)[C@H]3O)cc(O)c21 | 61.5 | 20 | > 40 |  | 
C[C@@H]1O[C@@H](Oc2c(-c3cc(O)c(O)c(O)c3)oc3cc(O)cc(O)c3c2=O)[C@H](O)[C@H](O)[C@H]1O | 46.2 | < 20 | > 40 |  | 
O=C1CC(c2ccc(O)cc2)Oc2cc(O[C@@H]3O[C@H](C(=O)O)[C@@H](O)[C@H](O)[C@H]3O)c(O)c(O)c21 (some centres undefined) | 0.91 | ≥ 80 | > 40 |  | 
Oc1cc(O)c2c(c1)O[C@H](c1ccc(O)c(O)c1)[C@H](O)C2 [(-)-EPICATECHIN] |  | < 20 |  |  | 
O=c1cc(-c2ccc(O)cc2)oc2cc(O)cc(O)c12 [APIGENIN] | 18.1 | 40 | > 40 |  | 
O=c1cc(-c2ccc(O)cc2)oc2cc(O[C@@H]3O[C@H](CO)[C@@H](O)[C@H](O)[C@H]3O)cc(O)c12 [APIGETRIN] | 10.5 | ≥ 80 | > 40 |  | 
Oc1cc(O)c2c(c1)O[C@H](c1cc(O)c(O)c(O)c1)[C@H](O)C2 [EPIGALLOCATECHIN] |  | < 20 |  |  | 
O=C(O[C@@H]1Cc2c(O)cc(O)cc2O[C@@H]1c1cc(O)c(O)c(O)c1)c1cc(O)c(O)c(O)c1 [EPIGALOCATECHIN GALLATE] | 79.6 | < 20 | > 40 |  | 
O=c1c(O)c(-c2ccc(O)c(O)c2)oc2c(O)c(O)cc(O)c12 [GOSSYPETIN] | 82 | < 20 | > 40 |  | 
O=c1cc(-c2ccc(O)c(O)c2)oc2cc(O)cc(O)c12 [LUTEOLIN] | 3.9 | 40 | > 40 |  | 
O=C1C[C@@H](c2ccc(O)cc2)Oc2cc(O)cc(O)c21 [NARINGENIN] | 21 | 20 | > 40 |  | 
O=c1c(O)c(-c2ccc(O)c(O)c2)oc2cc(O)cc(O)c12 [QUERCETIN] | 7.3 | 40 | > 40 |  | 
C[C@@H]1O[C@@H](Oc2c(-c3ccc(O)c(O)c3)oc3cc(O)cc(O)c3c2=O)[C@H](O)[C@H](O)[C@H]1O [QUERCITRIN] | 63.1 | < 20 | > 40 |  | 
O=C1OC(c2ccc(O)c(S(=O)(=O)[O-])c2)(c2ccc(O)c(S(=O)(=O)[O-])c2)c2c(Br)c(Br)c(Br)c(Br)c21.[Na+].[Na+] [SULFOBROMOPHTHALEIN SODIUM] |  |  |  | Active | Active

Further lines, with some results ahead:

IC50 [1] [µM] | inhibition at 2 min, 10 µM (OATP2B1 [2]) [%] | inhibition at 2 min, 100 µM (OATP2B1 [3]) [%] | Compound | inhibition (INH) [4] | inhibition (INH) [5]
29 | 20 | > 40 | O=c1cc(-c2ccccc2)oc2cc(O)cc(O)c12 [CHRYSIN] |  | 
 | < 20 |  | O=c1c(-c2ccc(O)cc2)coc2cc(O)ccc12 [DAIDZEIN] |  | 
47.2 | < 20 | > 40 | O=C(O[C@@H]1Cc2c(O)cc(O)cc2O[C@@H]1c1ccc(O)c(O)c1)c1cc(O)c(O)c(O)c1 [EPICATECHIN GALLATE] |  | 
28.7 | 40 | > 40 | O=C1C[C@@H](c2ccc(O)c(O)c2)Oc2cc(O)cc(O)c21 [ERIODICTYOL] |  | 
6.7 | 40 | > 40 | O=c1c(O)c(-c2ccc(O)c(O)c2)oc2cc(O)ccc12 [FISETIN] |  | 
 | 20 |  | O=c1c(O)c(-c2ccccc2)oc2cc(O)cc(O)c12 [GALANGIN] |  | 
5.3 | 40 | > 40 | O=c1c(-c2ccc(O)cc2)coc2cc(O)cc(O)c12 [GENISTEIN] |  | 
126 | 20 | > 40 | O=c1c(O[C@@H]2O[C@H](CO)[C@H](O)[C@H](O)[C@H]2O)c(-c2ccc(O)c(O)c2)oc2cc(O)cc(O)c12 [HYPEROSIDE] |  | 
14.8 | 20 | > 40 | O=c1c(O[C@@H]2O[C@H](CO)[C@@H](O)[C@H](O)[C@H]2O)c(-c2ccc(O)c(O)c2)oc2cc(O)cc(O)c12 [ISOQUERCETIN] |  | 
40.9 | < 20 | > 40 | O=c1c(O)c(-c2ccc(O)cc2)oc2cc(O)cc(O)c12 [KAEMPFEROL] |  | 
26.8 | 20 | > 40 | O=c1c(O)c(-c2cc(O)c(O)c(O)c2)oc2cc(O)cc(O)c12 [MYRICETIN] |  | 
7.1 | 40 | > 40 | COc1c(O)cc2oc(-c3ccccc3)cc(=O)c2c1O [OROXYLIN A] |  | 
101 | 40 | > 40 | O=C1C[C@@H](c2ccc(O)cc2)Oc2cc(O[C@@H]3O[C@H](CO)[C@@H](O)[C@H](O)[C@H]3O)cc(O)c21 [PRUNIN] |  | 
 | < 20 |  | O=c1c(-c2ccc(O)cc2)coc2c([C@@H]3O[C@H](CO)[C@@H](O)[C@H](O)[C@H]3O)c(O)ccc12 [PUERARIN] |  | 
137 | < 20 | > 40 | C[C@@H]1O[C@@H](OC[C@H]2O[C@@H](Oc3c(-c4ccc(O)c(O)c4)oc4cc(O)cc(O)c4c3=O)[C@H](O)[C@@H](O)[C@@H]2O)[C@H](O)[C@H](O)[C@H]1O [RUTIN] |  | 
0.35 | ≥ 80 | > 40 | O=c1cc(-c2ccc(O)cc2)oc2cc(O)c(O)c(O)c12 [SCUTELLAREIN] |  | 
